Results published in patent publication US4853467A, “Nitrogen containing derivatives of epipodophyllotoxin glucosides” (Bristol-Myers Company, priority 1987, dated 1989).
≈ marks a conversion by molar mass, not a printed value.

How the values were obtained:
P388 murine leukemia = experiment: P388 Leukemia, antitumor activity against murine P388 leukemia; type: in vivo, murine (female CDF1 mice); conditions: i.p. on days 5 and 8; 10^6 P388 cells i.p.; maximum effect over doses; >=125 considered significant; etoposide values in parentheses are positive control in same experiment
Method: Female CDF1 mice were implanted intraperitoneally with a tumor inoculum of 10^6 ascites cells of P388 murine leukemia and treated with various doses of a test compound; four mice were used for each dose level and ten were used as saline-treated control. The compounds were administered by intraperitoneal injection on days 5 and 8 (day 1 being the day of tumor implantation). Antitumor activity was expressed as % T/C which is the ratio of the median survival time (MST) of drug-treated group to the MST of saline-treated control group. A compound showing a % T/C value of 125 or greater is generally considered to have significant antitumor activity in the P388 test. The experiment lasted 31 days at the end of which time the number of survivors was noted. Table I presents the results of the above-described evaluation; only the maximum % T/C and the dose showing the maximum effect are reported.

B16-F10 murine melanoma = experiment: In vitro cytotoxicity assay, B16-F10 murine melanoma; type: cell-based; conditions: two values per compound, four-fold serial dilution
Method: (§1) The in vitro cytotoxicity assay involved growing various mammalian tumor cells, including human tumor cells, on microtitre plates employing established tissue culture methods. The concentration of each compound required to inhibit cell growth by 50% (IC50) was then determined by a four-fold serial dilution technique. The validity of the method has been supported by a report published in the "Proceedings of the American Association for Cancer Research", 1984, 25:1891 (Abst. No. 328). Tumor cells of the following types were employed for each compound tested: B16-F10 murine melanoma; Moser human colon; SW900 human lung and three human colon tumor cell lines namely HCT-116, HCT-VM, and HCT-VP, the latter two being resistant to teniposide (VM) and etoposide (VP), respectively. IC50 values less than 500 μg/ml are a positive indicator of antitumor activity. Table II presents IC50 values of various compounds of the present invention against the aforementioned cell lines.

HCT-116 = experiment: In vitro cytotoxicity assay, HCT-116 human colon tumor; type: cell-based; conditions: two values per compound, four-fold serial dilution
Method: as §1

HCT/VM34 = experiment: In vitro cytotoxicity assay, HCT/VM34 teniposide-resistant human colon tumor; type: cell-based; conditions: HCT/VM34, resistant to teniposide, two values per compound, four-fold serial dilution
Method: as §1

HCT/VP35 = experiment: In vitro cytotoxicity assay, HCT/VP35 etoposide-resistant human colon tumor; type: cell-based; conditions: two values per compound, four-fold serial dilution
Method: as §1

Moser human colon = experiment: In vitro cytotoxicity assay, Moser human colon; type: cell-based; conditions: two values per compound, four-fold serial dilution
Method: as §1

SW900 human lung = experiment: In vitro cytotoxicity assay, SW900 human lung; type: cell-based; conditions: Homo sapiens, SW900, SW900 human lung; two values per compound; four-fold serial dilution
Method: as §1

[1] = tested on: small cell lung cancer, non-lymphocytic leukemia, and non-seminomatous testicular cancer; conditions: AMA Drug Evaluation, 5th Edition, 1983; cited from earlier work

Structure (SMILES) | Max % T/C (ratio of median survival time of drug-treated group to saline-treated control group) (P388 murine leukemia) | In vitro cytotoxicity IC50, B-16-F10 (B16-F10 murine melanoma; B16-F10 murine melanoma) | IC50 (B16-F10 murine melanoma; Mus musculus, B16-F10, B16-F10 murine melanoma, read-out: In vitro cytotoxicity IC50, B-16-F10) | In vitro cytotoxicity IC50, HCT-116 (HCT-116; HCT-116 human colon) | IC50 (HCT-116; Homo sapiens, HCT-116, HCT-116 human colon) | In vitro cytotoxicity IC50, HCT/VM34 (HCT/VM34) | IC50 (HCT/VM34; Homo sapiens) | In vitro cytotoxicity IC50, HCT/VP35 (HCT/VP35; HCT/VP35, resistant to etoposide) | IC50 (HCT/VP35; Homo sapiens, HCT/VP35, HCT/VP35, resistant to etoposide) | IC50 (Moser human colon; Homo sapiens) | In vitro cytotoxicity IC50, MOSER (Moser human colon) | IC50 (SW900 human lung) | activity in the treatment of cancers [1]
C[C@@H]1OC[C@H]2O[C@@H](O[C@@H]3c4cc5c(cc4[C@@H](C4=CC(=O)C(=O)C(NC(=O)NCCCl)=C4)[C@H]4C(=O)OC[C@@H]43)OCO5)[C@H](O)[C@@H](O)[C@@H]2O1 [Example 29, 5'-Desmethoxy-5'-[[(2-chloroethyl)amino]carbonyl]amino etoposide 3',4'-ortho-quinone] | 135% | 38 µg/mL | 39 µg/mL (≈ 58.8 µM) | 46 µg/mL | 53 µg/mL (≈ 79.9 µM) | 53 µg/mL | 55 µg/mL (≈ 83 µM) | 79 µg/mL | 77 µg/mL (≈ 116 µM) | 71 µg/mL (≈ 107 µM) | 77 µg/mL | > 188 µg/mL | –
COc1cc([C@@H]2c3cc4c(cc3[C@@H](O[C@@H]3O[C@@H]5CO[C@@H](C)O[C@H]5[C@H](O)[C@H]3O)[C@H]3COC(=O)[C@H]23)OCO4)cc(OC)c1O [etoposide] | – | – | – | – | – | – | – | – | – | – | – | – | active in the treatment of a variety of cancers including small cell lung cancer, non-lymphocytic leukemia, and non-seminomatous testicular cancer
COc1cc([C@@H]2c3cc4c(cc3[C@@H](O[C@@H]3O[C@@H]5CO[C@@H](c6cccs6)O[C@H]5[C@H](O)[C@H]3O)[C@H]3COC(=O)[C@H]23)OCO4)cc(OC)c1O [teniposide] | – | – | – | – | – | – | – | – | – | – | – | – | active in the treatment of a variety of cancers including small cell lung cancer, non-lymphocytic leukemia, and non-seminomatous testicular cancer
